Laboratory results reported in patent US20120251595A1, “EMULSION TEMPLATE METHOD TO FORM SMALL PARTICLES OF HYDROPHOBIC AGENTS WITH SURFACE ENRICHED HYDROPHILICITY BY ULTRA RAPID FREEZING” (BOARD OF REGENTS, THE UNIVERSITY OF TEXAS SYSTEM, priority 2009, published 2012).
In brackets after ≈: the same amount, converted by molar mass.

Legend:
[1] = cited from earlier work
[2] = X-ray photoelectron spectroscopy (XPS) of particle surface composition; assay type: physicochemical
Description: […]
Powders containing ITZ were prepared according to procedures outlined in Examples 1, 2, 3, and 4 with the same formulations. The elemental composition of the particle surfaces was determined using X-ray photoelectron spectroscopy (XPS). […] Percent surface excess of ITZ was calculated by deducting 50% from the percent surface compositions of ITZ while percent surface excess of lecithin was calculated by deducting 25% from the percent surface compositions of lecithin. […]

[3] = Solubility and pKa of itraconazole; assay type: physicochemical; conditions: pH 1.2 dissolution media, simulated gastric fluid, thermodynamic from solid, crystalline ITZ, read-out: Equilibrium solubility Ceq
Description: This study compares the effectiveness of fine emulsion templating and co-solvent approaches with the URF process to enhance the wetting and solubility of the model drug, itraconazole (ITZ). Itraconazole (ITZ) is a weakly basic broad-spectrum triazole antifungal agent indicated in the treatment of both local and systemic fungal infections; however, successful treatment of infections is often complicated by its low aqueous solubility resulting in variable absorption and plasma concentration. Classified as a BCS class II compound, ITZ has a strongly pH dependent solubility (pKa˜3.7) with reported solubilities in acidic and neutral media of approximately 4 μg/mL and 1 ng/mL, respectively. While limited by poor aqueous solubility, the highly lipophilic nature of the compound allows for high permeability of intestinal membranes. […]

## CCC(C)n1ncn(-c2ccc(N3CCN(c4ccc(OCC5COC(Cn6cncn6)(c6ccc(Cl)cc6Cl)O5)cc4)CC3)cc2)c1=O (stereo not shown) [ITZ, itraconazole]
[1]
  pKa: ~3.7
[2]
  Mass Concentration Chlorine, SOL: 9.54%
  Surface composition ITZ, SOL: 100.0%
[3]
  solubility thermodynamic: 5 µg/mL (≈ 7.09 µM)
